# Values joined by “and” are separate entries in the source; they are usually repeats but may differ in a detail not shown here. Equal values may be shown once. Results filed as inconclusive are left out.
# Test system: CD8F1 mice, subcutaneous mammary adenocarcinoma, T/C%
# Assay: NCI In Vivo Anticancer Drug Screen. Data for tumor model Mammary Adenocarcinoma CD8F1 (subcutaneous) in CD8F1
# Details: higher = larger tumour
# In short: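 Transplantable tumors were established in mice, animals were dosed with compound or vehicle, and survival or tumor size was then measured in both groups. The treated result was divided by the control result.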
# [1] = endpoint: median tumor weight (est.), dose: 4.0 mg/kg/injection, schedule: Q07DX005 (ip), vehicle: saline
# [2] = endpoint: median tumor weight (est.), dose: 25.0 mg/kg/injection, schedule: Q07DX005 (ip), vehicle: Klucel (hydroxypropylcellulose) (HPC)
# [3] = endpoint: median tumor weight (est.), dose: 25.0 mg/kg/injection, schedule: Q07DX005 (ip), vehicle: saline
# [4] = endpoint: median tumor weight (est.), dose: 50.0 mg/kg/injection, schedule: Q07DX005 (ip), vehicle: saline
# [5] = endpoint: median tumor weight (est.), dose: 100.0 mg/kg/injection, schedule: Q07DX005 (ip), vehicle: Klucel (hydroxypropylcellulose) (HPC)
# [6] = endpoint: median tumor weight (est.), dose: 100.0 mg/kg/injection, schedule: Q07DX005 (ip), vehicle: saline
# [7] = endpoint: median tumor weight (est.), dose: 200.0 mg/kg/injection, schedule: Q07DX005 (ip), vehicle: Klucel (hydroxypropylcellulose) (HPC)
# [8] = endpoint: median tumor weight (est.), dose: 200.0 mg/kg/injection, schedule: Q07DX005 (ip), vehicle: saline
# [9] = endpoint: median tumor weight (est.), dose: 400.0 mg/kg/injection, schedule: Q07DX005 (ip), vehicle: saline
# [10] = endpoint: median tumor weight change, dose: 125.0 mg/kg/injection, schedule: Q01DX001 (ip), vehicle: suspension in saline
# [11] = endpoint: median tumor weight change, dose: 250.0 mg/kg/injection, schedule: Q01DX001 (ip), vehicle: suspension in saline
# [12] = endpoint: median tumor weight (est.), dose: 12.5 mg/kg/injection, schedule: Q07DX005 (ip), vehicle: Klucel (hydroxypropylcellulose) (HPC)
# [13] = endpoint: median tumor weight (est.), dose: 50.0 mg/kg/injection, schedule: Q07DX005 (ip), vehicle: Klucel (hydroxypropylcellulose) (HPC)
# [14] = endpoint: median tumor weight change, dose: 250.0 mg/kg/injection, schedule: Q01DX001 (ip), vehicle: Klucel (hydroxypropylcellulose) (HPC)
# [15] = endpoint: median tumor weight change, dose: 500.0 mg/kg/injection, schedule: Q01DX001 (ip), vehicle: Klucel (hydroxypropylcellulose) (HPC)
# [16] = endpoint: median tumor weight change, dose: 62.0 mg/kg/injection, schedule: Q01DX001 (ip), vehicle: Klucel (hydroxypropylcellulose) (HPC)
compound,measurement,setting,value
CCCCNCCCNCCCNC(=O)c1csc(-c2csc(CCNC(=O)C(NC(=O)C(C)C(O)C(C)NC(=O)C(NC(=O)c3nc(C(CC(N)=O)NCC(N)C(N)=O)nc(N)c3C)C(OC3OC(CO)C(O)C(O)C3OC3OC(CO)C(O)C(OC(N)=O)C3O)c3cnc[nH]3)C(C)O)n2)n1 (stereo not given),T/C,[1],16 % of control
same,T/C,"endpoint: median tumor weight (est.), dose: 8.0 mg/kg/injection, schedule: Q07DX005 (ip), vehicle: saline",10 % of control
same,T/C,"endpoint: median tumor weight (est.), dose: 16.0 mg/kg/injection, schedule: Q07DX005 (ip), vehicle: saline",16 % of control
CC(=O)CC(C)=O.CC(=O)CC(C)=O.O=N[O-].O=N[O-].[Co],T/C,"endpoint: median tumor weight change, dose: 62.5 mg/kg/injection, schedule: Q01DX001 (ip), vehicle: saline with Tween-80",96 % of control
same,T/C,"endpoint: median tumor weight change, dose: 125.0 mg/kg/injection, schedule: Q01DX001 (ip), vehicle: saline with Tween-80",38 % of control
OC(CBr)C(O)C(O)C(O)CBr (stereo not given),T/C,"endpoint: mean tumor weight, dose: 100.0 mg/kg/injection, schedule: Q01DX009 (ip), vehicle: saline",164 % of control
same,T/C,"endpoint: mean tumor weight, dose: 150.0 mg/kg/injection, schedule: Q01DX009 (ip), vehicle: saline",89 % of control
same,T/C,"endpoint: mean tumor weight, dose: 200.0 mg/kg/injection, schedule: Q01DX009 (ip), vehicle: saline",69 % of control
same,T/C,"endpoint: mean tumor weight, dose: 300.0 mg/kg/injection, schedule: Q01DX009 (ip), vehicle: saline",49 % of control
same,T/C,"endpoint: mean tumor weight, dose: 400.0 mg/kg/injection, schedule: Q01DX009 (ip), vehicle: saline",53 % of control
same,T/C,"endpoint: mean tumor weight, dose: 500.0 mg/kg/injection, schedule: Q01DX009 (ip), vehicle: saline",38 % of control
same,T/C,[2],49 % of control
same,T/C,[3],84 % of control
same,T/C,[4],32 % of control
same,T/C,[5],31 % of control
same,T/C,[6],41 % of control
same,T/C,[7],2 % of control
same,T/C,[8],28 % of control
same,T/C,[9],7 % of control
same,T/C,"endpoint: median tumor weight (est.), dose: 1200.0 mg/kg/injection, schedule: Q07DX005 (ip), vehicle: Klucel (hydroxypropylcellulose) (HPC)",13 % of control
same,T/C,"endpoint: median tumor weight change, dose: 150.0 mg/kg/injection, schedule: Q01DX001 (ip), vehicle: Klucel (hydroxypropylcellulose) (HPC)",95 % of control
same,T/C,"endpoint: median tumor weight change, dose: 300.0 mg/kg/injection, schedule: Q01DX001 (ip), vehicle: Klucel (hydroxypropylcellulose) (HPC)",39 % of control
same,T/C,"endpoint: median tumor weight change, dose: 600.0 mg/kg/injection, schedule: Q01DX001 (ip), vehicle: Klucel (hydroxypropylcellulose) (HPC)",51 % of control
CN(C)[C@@H]1C(=O)C(C(N)=O)=C(O)[C@@]2(O)C(=O)C3=C(O)c4c(O)ccc(Cl)c4[C@@](C)(O)[C@H]3C[C@@H]12,T/C,"endpoint: median tumor weight change, dose: 31.25 mg/kg/injection, schedule: Q01DX001 (ip), vehicle: suspension in saline",86 % of control
same,T/C,"endpoint: median tumor weight change, dose: 62.5 mg/kg/injection, schedule: Q01DX001 (ip), vehicle: suspension in saline",104 % of control
same,T/C,[10],84 % of control
same,T/C,[11],83 % of control
COC(=O)[C@@]12OC[C@]34[C@H]([C@@H](O)[C@@H]1O)[C@@]1(C)CC(=O)C(O)=C(C)[C@@H]1C[C@H]3OC(=O)[C@H](OC(=O)/C=C(/C)C(C)(C)O)[C@@H]24,T/C,"endpoint: median tumor weight (est.), dose: 0.05 mg/kg/injection, schedule: Q07DX005 (ip), vehicle: saline",92 % of control
same,T/C,"endpoint: median tumor weight (est.), dose: 0.1 mg/kg/injection, schedule: Q07DX005 (ip), vehicle: saline",88 % of control
same,T/C,"endpoint: median tumor weight (est.), dose: 0.2 mg/kg/injection, schedule: Q07DX005 (ip), vehicle: saline",67 % of control
same,T/C,"endpoint: median tumor weight (est.), dose: 0.4 mg/kg/injection, schedule: Q07DX005 (ip), vehicle: saline",100 % of control
same,T/C,"endpoint: median tumor weight (est.), dose: 0.8 mg/kg/injection, schedule: Q07DX005 (ip), vehicle: saline",90 % of control
[I][Hg][CH2]C1OCCOC1[CH2][Hg][I] (stereo not given),T/C,[12],96 % of control
same,T/C,[2],100 % of control
same,T/C,[13],85 % of control
same,T/C,[5],76 % of control
same,T/C,[7],52 % of control
O=C1C(=O)c2ccccc2C(O)=C1CC=C(Cl)Cl,T/C,"endpoint: median tumor weight (est.), dose: 6.25 mg/kg/injection, schedule: Q07DX005 (ip), vehicle: Klucel (hydroxypropylcellulose) (HPC)",112 % of control
same,T/C,[12],52 % of control
same,T/C,[2],99 % of control
same,T/C,[13],93 % of control
same,T/C,[5],61 % of control
CSc1ncc2ncn(C3OC(CO)C(O)C3O)c2n1 (stereo not given),T/C,[14],92 % of control
same,T/C,[15],110 % of control
same,T/C,"endpoint: median tumor weight change, dose: 1000.0 mg/kg/injection, schedule: Q01DX001 (ip), vehicle: Klucel (hydroxypropylcellulose) (HPC)",57 % of control
C=CC12COC(=O)C(=C)C1C1OC(=O)C(=C)C1C(O)C2 (stereo not given),T/C,"endpoint: mean tumor weight, dose: 5.0 mg/kg/injection, schedule: Q07DX006 (ip), vehicle: saline",78 % of control
Cc1ccc(NCCN(C)C)c2c(=O)c3cc(O)ccc3sc12,T/C,[14],-8 % of control and 15 % of control
same,T/C,[15],-6 % of control
C=CCc1cn(C2CC(O)C(CO)O2)c(=O)[nH]c1=O (stereo not given),T/C,[3],58 % of control
same,T/C,[4],79 % of control
same,T/C,[6],86 % of control
same,T/C,[8],248 % of control
same,T/C,[9],75 % of control
same,T/C,"endpoint: median tumor weight (est.), dose: 800.0 mg/kg/injection, schedule: Q07DX005 (ip), vehicle: saline",79 % of control
N/C(=N\OC(=O)Nc1ccc(CSc2ccc(Cl)cc2)o1)c1ccccn1,T/C,[16],64 % of control
same,T/C,"endpoint: median tumor weight change, dose: 125.0 mg/kg/injection, schedule: Q01DX001 (ip), vehicle: Klucel (hydroxypropylcellulose) (HPC)",99 % of control
same,T/C,[14],80 % of control
COC(=O)C[C@](O)(CCCC(C)(C)O)C(=O)O[C@@H]1C(OC)=C[C@]23CCCN2CCc2cc4c(cc2[C@H]13)OCO4,T/C,"endpoint: median tumor weight (est.), dose: 0.25 mg/kg/injection, schedule: Q07DX005 (ip), vehicle: saline",59 % of control
same,T/C,"endpoint: median tumor weight (est.), dose: 0.5 mg/kg/injection, schedule: Q07DX005 (ip), vehicle: saline",57 % of control and 60 % of control
same,T/C,"endpoint: median tumor weight (est.), dose: 1.0 mg/kg/injection, schedule: Q07DX005 (ip), vehicle: saline",61 % of control and 78 % of control
same,T/C,"endpoint: median tumor weight (est.), dose: 2.0 mg/kg/injection, schedule: Q07DX005 (ip), vehicle: saline",14 % of control and 21 % of control
same,T/C,[1],7 % of control
COC1C(OC(=O)/C=C/C=C/C=C/C=C/C(=O)O)CCC2(CO2)C1C1(C)OC1CC=C(C)C (stereo not given),T/C,"endpoint: median tumor weight (est.), dose: 25.0 mg/kg/injection, schedule: Q07DX005 (ip), vehicle: suspension in saline",102 % of control
same,T/C,"endpoint: median tumor weight (est.), dose: 50.0 mg/kg/injection, schedule: Q07DX005 (ip), vehicle: suspension in saline",106 % of control
same,T/C,"endpoint: median tumor weight (est.), dose: 100.0 mg/kg/injection, schedule: Q07DX005 (ip), vehicle: suspension in saline",91 % of control
same,T/C,"endpoint: median tumor weight (est.), dose: 200.0 mg/kg/injection, schedule: Q07DX005 (ip), vehicle: suspension in saline",94 % of control
same,T/C,[10],85 % of control
same,T/C,[11],56 % of control
same,T/C,"endpoint: median tumor weight change, dose: 500.0 mg/kg/injection, schedule: Q01DX001 (ip), vehicle: suspension in saline",58 % of control
COc1c(C=O)c2c(c(OC)c1OC)-c1ccc(OC)c(=O)cc1[C@@H](NC(C)=O)CC2,T/C,"endpoint: median tumor weight change, dose: 8.0 mg/kg/injection, schedule: Q01DX001 (ip), vehicle: Klucel (hydroxypropylcellulose) (HPC)",76 % of control
same,T/C,"endpoint: median tumor weight change, dose: 15.62 mg/kg/injection, schedule: Q01DX001 (ip), vehicle: Klucel (hydroxypropylcellulose) (HPC)",93 % of control
same,T/C,"endpoint: median tumor weight change, dose: 16.0 mg/kg/injection, schedule: Q01DX001 (ip), vehicle: Klucel (hydroxypropylcellulose) (HPC)",88 % of control
same,T/C,"endpoint: median tumor weight change, dose: 31.0 mg/kg/injection, schedule: Q01DX001 (ip), vehicle: Klucel (hydroxypropylcellulose) (HPC)",54 % of control
same,T/C,"endpoint: median tumor weight change, dose: 31.25 mg/kg/injection, schedule: Q01DX001 (ip), vehicle: Klucel (hydroxypropylcellulose) (HPC)",69 % of control
same,T/C,[16],17 % of control
same,T/C,"endpoint: median tumor weight change, dose: 62.5 mg/kg/injection, schedule: Q01DX001 (ip), vehicle: Klucel (hydroxypropylcellulose) (HPC)",7 % of control
O=c1[nH]c(=O)n([C@H]2CCCO2)cc1F,T/C,[12],100 % of control
same,T/C,"endpoint: median tumor weight (est.), dose: 20.0 mg/kg/injection, schedule: Q07DX005 (ip), vehicle: Klucel (hydroxypropylcellulose) (HPC)",82 % of control
same,T/C,"endpoint: median tumor weight (est.), dose: 40.0 mg/kg/injection, schedule: Q07DX005 (ip), vehicle: Klucel (hydroxypropylcellulose) (HPC)",97 % of control
same,T/C,[13],102 % of control
same,T/C,[5],84 % of control
same,T/C,"endpoint: median tumor weight (est.), dose: 160.0 mg/kg/injection, schedule: Q07DX005 (ip), vehicle: Klucel (hydroxypropylcellulose) (HPC)",91 % of control
same,T/C,[7],95 % of control
same,T/C,"endpoint: median tumor weight (est.), dose: 320.0 mg/kg/injection, schedule: Q07DX005 (ip), vehicle: Klucel (hydroxypropylcellulose) (HPC)",10 % of control
same,T/C,"endpoint: median tumor weight (est.), dose: 400.0 mg/kg/injection, schedule: Q07DX005 (ip), vehicle: Klucel (hydroxypropylcellulose) (HPC)",4 % of control
